Data on 26 molecules can be found in the SangsterLogP compilation.

*1 amine or outer side, *2 acyl side, *3 side chain or, on linkers, in order; H or OH if unused. Positions of bridges follow the written chain, without caps; N, C: chain ends. Where a SMILES comes first, the peptide text is derived from it. Residues, ends and D or L forms follow the SMILES beside them. [ ]: non-standard residue; d: D form. The star is where a group is joined. X1 = CC(C)C[C@H](N[*:1])[C@@H](O)C[C@H](C(=O)[*:2])C(C)C; NMeH = CN[C@@H](Cc1c[nH]cn1)C(=O)O; NHCH2(2-pyridyl) = c1ccc(CN*)nc1; Boc = CC(C)(C)OC(=O)*

Usually logP stands for the decadic logarithm of the partition coefficient of the neutral form, usually between octanol and water. As usually defined, the logD is the decadic logarithm of the distribution of all forms, ionised or not, between an organic phase and buffer at a given pH. Low values mean a more hydrophilic compound, high ones a more lipophilic compound.

The nature of series [1]: method code SF-AS, from DOI: 10.1021/jm00371a014, PMID: 6716401. The settings on record: pH 7.4.
Assay in series [2]: not given
This is another data set of the same source.

Assay in series [3]: not given
This is another data set of the same source.

A short description of series [4]: method code SF-AS, from DOI: 10.1016/s0960-894x(99)00527-2, PMID: 10571171. The settings on record: pH 7.0.
The nature of series [5]: method code SF-AS, from DOI: 10.1002/qua.560100722. The settings on record: pH 7.8.
Assay in series [6]: not given
The source holds these as a separate data set.

Assay in series [7]: not given
The source holds these as a separate data set.

A short description of series [8]: method code AS, from DOI: 10.1081/jlc-120022394.
Series [9] is described as follows: method code SF, from DOI: 10.1021/jm00079a001, PMID: 1732531. The settings on record: pH 7.4.
Series [10] can be described thus: method code SF-AS, from DOI: 10.1021/jm0401006, PMID: 15481980. The settings on record: pH 7.4.
The nature of series [11]: method code SF, from DOI: 10.1016/s0928-0987(97)10019-7. The note with it: pH 7.4.
Series [12] can be described thus: method code SF-RC, from PMID: 3346819. The settings on record: pH 7.4.
The nature of series [13]: method code SF-AS, from DOI: 10.1562/0031-8655(2003)0780411sacotn2.0.co2, PMID: 14626671. The note with it: pH 6.8.
Series [14] can be described thus: method code SF-RC, from DOI: 10.1002/jps.2600770619, PMID: 3171939. The settings on record: pH 2.0.
Assay in series [15]: not given
This is another data set of the same source.

A short description of series [16]: method code SF-RC, from DOI: 10.1002/jps.2600730807, PMID: 6491907.
Assay in series [17]: not given
The source holds these as a separate data set.

Assay in series [18]: not given
The source holds these as a separate data set.

Assay in series [19]: not given
This is another data set of the same source.

Assay in series [20]: not given
The source holds these as a separate data set.

Assay in series [21]: not given
This is another data set of the same source.

Assay in series [22]: not given
The source holds these as a separate data set.

Series [23] in a line: method code SF, from Moerlein, M.; Dischino, D.; Raymond, N.; Weitl, L.; Welch, J. (1982). Factors affecting the cerebral uptake of gallium complexes. J Labelled Comp Radiopharm, 19(11-12)1421-1422. The note with it: pH 7.0.
For series [24] the following is noted: pH 7.4.
Assay in series [25]: not given
The source holds these as a separate data set.

Molecule `Cc1ccccc1Nc1nc2ccc(C(=O)NC(CCCCNC(=O)C=Cc3cccnc3)C(=O)NC(CCCC(=O)O)C(=O)NC3(C(N)=O)CCCCC3)cc2[nH]1` (stereo unspecified) came in with a logP of 1.88.

In the case of `COc1cccc2c1C(=N)c1c(O)c3c(c(O)c1C2=O)C[C@](O)(C(=O)CO)C[C@@H]3O[C@H]1C[C@@H](N2CCOC[C@@H]2C#N)[C@@H](O)[C@@H](C)O1`, in series [1], the log distribution coefficient (logD) came to 1.97.

For `COC(=O)[C@H](Cc1ccccc1)NC(=O)[C@H](Cc1ccccc1)NC(=O)[C@@H](NC(=O)[C@H](CC(C)C)NC(=O)[C@H](CCCCNC(=O)OCc1ccccc1)NC(=O)OC(C)(C)C)C(C)C`, in series [2], the lipophilicity (logP) was 7.62.

In series [3], `CO[C@H]1C=CO[C@@]2(C)Oc3c(C)c(O)c4c(c3C2=O)C(=O)/C(=C/NN2CCN(C3CCCC3)CC2)C(=C4O)NC(=O)/C(C)=C\C=C/[C@H](C)[C@H](O)[C@@H](C)[C@@H](O)[C@H](C)[C@H](OC(C)=O)[C@H]1C` came in with a log partition coefficient (logP) of 1.24.

`O=C(NCCN(CCNC(=O)c1ccc2cccnc2c1O)CCNC(=O)c1ccc2cccnc2c1O)c1ccc2cccnc2c1O`: the log distribution coefficient (logD) in series [4] came to 1.

Take `COc1cccc2c1C(=O)c1c(O)c3c(c(O)c1C2=O)CC(O)(C(C)=O)CC3OC1CC(NC(=O)CNC(=O)CN(C)C)C(O)C(C)O1` (stereo unspecified): the logD in [5] was determined as 1.12.

For `CCn1c(=O)c2c(nc(C=Cc3ccc(C(=O)OCCOCCOCCOCCOCCOCCOCCOCCOCCOC)c(OC)c3)n2C)n(CC)c1=O`, in series [6], the log partition coefficient (logP) is 2.8.

Molecule `CC[C@H](C)[C@H](NC(=O)[C@@H](C[C@H](O)[C@H](CC(C)C)NC(=O)[C@H](Cc1cnc[nH]1)N(C)C(=O)[C@H](Cc1ccccc1)NC(=O)[C@@H]1CCCN1C(=O)OC(C)(C)C)C(C)C)C(=O)NCc1ccccn1` (Boc-PF[NMeH][X1]I-{NHCH2(2-pyridyl)}) gave a lipophilicity (logP) in series [7] of 4.2.

For the molecule `CCOC(=O)C(=Cc1ccc(Cl)cc1)NC=O`, the logP in series [8] is 2.65.

In turn, `C=CCC(NC(=O)C(Cc1ccccc1)NS(=O)(=O)N1CCOCC1)C(=O)NC(CC1CCCCC1)C(=O)C(F)(F)C(=O)NCC(C)CC` (stereo unspecified) yielded a logD in [9] of 4.63.

The molecule `CCOC(=O)c1cnc2c(c(C)nn2C)c1Nc1ccc(OC(C)=O)cc1` registered a logD in series [10] of 1.67.

In turn, `CC(C)(C)S(=O)(=O)C[C@@H](Cc1ccccc1)C(=O)N[C@@H](Cc1cnc[nH]1)C(=O)N[C@@H](CC1CCCCC1)[C@@H](O)[C@@H](O)C1CC1` had a logD in [11] of 2.75.

`CC(CNC(=O)c1ccccc1)C(=O)OCC(=O)C12OC(C)(C)OC1CC1C3CCC4=CC(=O)C=CC4(C)C3(F)C(O)CC12C` (stereo unspecified) came in with a logD in series [12] of 2.3.

`COc1c(O)c2c(=O)cc(OC)c3c4c(OC)cc(=O)c5c(O)c(NCCN6CCOCC6)c6c(c(c1C(C(C)=O)=C(C)C6)c23)c54` returned a logD in series [13] of 1.15.

The molecule `CC1(C)C(OC(=O)CCC(=O)O)CC[C@@]2(C)[C@H]1CC[C@]1(C)[C@H]2C(=O)C=C2[C@@H]3C[C@@](C)(C(=O)O)CC[C@]3(C)CC[C@]21C` (stereo partly specified) showed a logD in series [14] of 2.81.

`CC[C@H](C)[C@@H]1NC(=O)[C@H](Cc2ccc(O)cc2)NC(=O)[C@@H](N)CSSC[C@@H](C(=O)N2CCC[C@H]2C(=O)N[C@@H](CCCN=C(N)N)C(=O)NCC(N)=O)NC(=O)[C@H](CC(N)=O)NC(=O)[C@H](CCC(N)=O)NC1=O` (H-CYIQNCPRG-NH2; disulfide 1-6): the lipophilicity (logP) in [15] is -1.62.

In the case of `CC1OC(OC2C(O)CC(OC3C(O)CC(OC4CCC5(C)C(CCC6C5CC(O)C5(C)C(C7COC(=O)C7)CCC65O)C4)OC3C)OC2C)CC(O)C1O` (stereo unspecified), the logP in [16] turned out to be 1.25.

Take `COc1cc(CN2C(=O)N(Cc3cccc(C(=O)Nc4cnc(C)cn4)c3)C(Cc3ccccc3)C(O)C(O)C2Cc2ccccc2)cc(OC)c1` (stereo unspecified): the logP in series [17] amounted to 5.59.

As to `CCCC(=O)O[C@H]1[C@H](C)O[C@@H](O[C@H]2[C@H](N(C)C)[C@@H](O)[C@H](O[C@H]3[C@@H](CC=O)C[C@@H](C)[C@@H](O)/C=C/C=C/C[C@@H](C)OC(=O)C[C@@H](O)[C@@H]3OC)O[C@@H]2C)C[C@@]1(C)OC(=O)CC`, the lipophilicity (logP) in series [18] turned out to be 3.08.

Take `CC(C)(C)NC(=O)[C@@H]1C[C@@H]2CCCC[C@@H]2CN1C[C@@H](O)[C@H](Cc1ccccc1)NC(=O)[C@H](CC(N)=O)NC(=O)c1ccc2ccccc2n1`: in series [19], the lipophilicity (logP) is 3.

Molecule `C=CC[C@@H]1/C=C(\C)C[C@H](C)C[C@H](OC)[C@H]2O[C@@](O)(C(=O)C(=O)N3CCCC[C@H]3C(=O)O[C@H](/C(C)=C/[C@@H]3CC[C@@H](O)[C@H](OC)C3)[C@H](C)[C@@H](O)CC1=O)[C@H](C)C[C@@H]2OC` gave a lipophilicity (logP) in [20] of 3.3.

`CCC(C(=O)OCc1ccc(COC(=O)C(CC)C(COC(=O)c2ccccc2)Cc2cncn2C)cc1)C(COC(=O)c1ccccc1)Cc1cncn1C` (stereo unspecified) yielded a logP in series [21] of 6.37.

In series [22], `CO[C@@H](CC[C@H](C)[C@H]1O[C@@]23CC(OC(=O)C[C@H]([C@@H](C)O)OC(=O)C[C@](O)(O2)[C@H](C)CC3(C)C)[C@@H]1C)c1cc(O)ccc1Br` had a logP of 5.4.

In series [23], `CCCCCCCCN(CCCCN(CCCN(CCCCCCCC)C(=O)c1cccc(O)c1O)C(=O)c1cccc(O)c1O)C(=O)c1cccc(O)c1O` returned a logD of 0.51.

On to `CCN1CC(C(O)C(CC2CCCCC2)NC(=O)C(Cc2cscn2)NC(=O)C(CC(=O)N2CCOCC2)Cc2ccccc2)OC1=O` (stereo unspecified), for which the log distribution coefficient (logD) in series [24] is 2.83.

As to `COc1ccc(C2(O)OC(=O)C(c3ccc4c(c3)OCO4)=C2Cc2cc(OC)c(OC)c(OCCOCCOCCOCCOCc3cn(C4OC(CO)C(O)C(O)C4F)nn3)c2)cc1` (stereo unspecified), the logP in series [25] was -0.4.
